Legend:
E. coli K-12 MG1655 = assay: Growth Profiler growth of K-12 MG1655 in a range of concentrations of other polyamines and amine-containing compounds; conditions: for screening concentration for which wild-type cells could achieve a growth rate of 0.2-0.3 h^−1: K-12 MG1655, uninhibited growth 0.7-0.9 h^−1 in M9 glucose minimal medium; for tlag (lag time) / μ (growth rate): Growth Profiler
Description: For data obtained with the Growth Profiler, improved image analysis was additionally implemented to obtain the updated growth parameters. In the Tables below, for values labeled in columns with “(1)”, integrated pixel values (which were later converted to OD600 using a calibration curve) were obtained directly from image analysis capabilities in the Growth Profiler software. In the Tables below, for values labeled in columns with “(2)”, a new algorithm was implemented that automatically detected the pixel integration region in each well in each image by locating the darkest pixels in each well. These values were converted to OD600 with a calibration run in the same manner. The new algorithm provided for an improved accuracy in determining the growth rate, since it eliminated a slowly oscillating frequency that was sometimes observed in the original data, potentially related to the practical setup when scanning the plates.
Additionally, each evolved isolate was tested for cross-tolerance toward other polyamines and amine-containing compounds of biotechnological interest. First, K-12 MG1655 was tested in the Growth Profiler screening format for growth in the presence of a range of concentrations of each compound: 1,3-diaminopropane, 1,5-diaminopentane (cadaverine), spermidine, citrulline, ethylenediamine, carnitine, and ornithine. Variable concentrations of these compounds elicited growth inhibition in E. coli K-12 MG1655 (Table 36). […] The compounds citrulline and ornithine are polyamine-containing amino acids. […] Among the only exceptions were PUTR7-1 in citrulline and PUTR5-1 and PUTR6-2 in ornithine.

[1] = system: Escherichia coli K-12 MG1655; assay: Screening for tolerance in wild-type cells (Biolector, varying concentrations of putrescine or HMDA); type: cell-based; conditions: for mean (1) tlag (lag time) / mean (1) μ (growth rate) / mean (2) tlag (lag time) / mean (2) μ (growth rate): K-12 MG1655; for mean (1) tlag (lag time) / mean (1) μ (growth rate): software version (1); for mean (2) tlag (lag time) / mean (2) μ (growth rate): software version (2); for maximum measured concentration at which K-12 MG1655 can grow: M9+1% glucose
Experimental: Escherichia coli K-12 MG1655 was grown overnight in M9 minimal medium+1% glucose and subcultured the following morning to an initial OD600 of 0.05 in M9+1% glucose. Cells were grown to mid-exponential phase (OD600 0.7-1.0) and were back-diluted with fresh medium to an OD600 of 0.7. […] The culture volume in each well was 1.4 mL.
For data obtained with the Biolector microbioreactor system, self-baselined growth series were imported directly into a custom software platform that automatically detects growth phases and exports growth rates and lag times.

[2] = K-12 MG1655, 10 g/L of the compound
[3] = K-12 MG1655, 20 g/L of the compound
[4] = K-12 MG1655, 25 g/L of the compound
[5] = K-12 MG1655, 30 g/L of the compound
[6] = K-12 MG1655, 40 g/L of the compound
[7] = K-12 MG1655, 50 g/L of the compound
[8] = K-12 MG1655, 5 g/L of the compound
[9] = K-12 MG1655, 45 g/L of the compound
[10] = K-12 MG1655, 60 g/L of the compound
[11] = K-12 MG1655, 75 g/L of the compound

Structure (SMILES): NCCCN [1,3-diaminopropane, propane-1,3-diamine]
- screening concentration for which wild-type cells could achieve a growth rate of 0.2-0.3 h^−1 (E. coli K-12 MG1655): 35 g/L

Structure (SMILES): N=C(N)NCCCCN [Agmatine, 1-amino-4-guanidinobutane]
- tlag (lag time) (E. coli K-12 MG1655; [2]): 5.3 h
- μ (growth rate) (E. coli K-12 MG1655; [2]): 0.700 h⁻¹
- tlag (lag time) (E. coli K-12 MG1655; [3]): 5.6 h
- μ (growth rate) (E. coli K-12 MG1655; [3]): 0.630 h⁻¹
- tlag (lag time) (E. coli K-12 MG1655; [4]): 6.1 h
- μ (growth rate) (E. coli K-12 MG1655; [4]): 0.648 h⁻¹
- tlag (lag time) (E. coli K-12 MG1655; [5]): 6.3 h
- μ (growth rate) (E. coli K-12 MG1655; [5]): 0.610 h⁻¹
- tlag (lag time) (E. coli K-12 MG1655; [6]): 7.0 h
- μ (growth rate) (E. coli K-12 MG1655; [6]): 0.632 h⁻¹
- tlag (lag time) (E. coli K-12 MG1655; [7]): 7.9 h
- μ (growth rate) (E. coli K-12 MG1655; [7]): 0.523 h⁻¹
- concentration up to which the compound was non-toxic (E. coli K-12 MG1655; K-12 MG1655, Growth Profiler): up to 50 g/L

Structure (SMILES): NCCCCCCN [HMDA, hexane-1,6-diamine]
- mean (1) tlag (lag time) ([1]; 10 g/L): 1.3 h
- mean (1) μ (growth rate) ([1]; 10 g/L): 0.806 h⁻¹
- mean (2) tlag (lag time) ([1]; 10 g/L): 0.8 h
- mean (2) μ (growth rate) ([1]; 10 g/L): 0.605 h⁻¹
- mean (1) tlag (lag time) ([1]; 20 g/L): 1.4 h
- mean (1) μ (growth rate) ([1]; 20 g/L): 0.601 h⁻¹
- mean (2) tlag (lag time) ([1]; 20 g/L): 0.3 h
- mean (2) μ (growth rate) ([1]; 20 g/L): 0.394 h⁻¹
- mean (1) tlag (lag time) ([1]; 30 g/L): 1.7 h
- mean (1) μ (growth rate) ([1]; 30 g/L): 0.475 h⁻¹
- mean (2) tlag (lag time) ([1]; 30 g/L): 0.0 h
- mean (2) μ (growth rate) ([1]; 30 g/L): 0.241 h⁻¹
- mean (1) tlag (lag time) ([1]; 40 g/L): 2.6 h
- mean (1) μ (growth rate) ([1]; 40 g/L): 0.216 h⁻¹
- mean (2) tlag (lag time) ([1]; 40 g/L): 2.3 h
- mean (2) μ (growth rate) ([1]; 40 g/L): 0.136 h⁻¹
- mean (1) μ (growth rate) ([1]; 50 g/L): 0.000 h⁻¹
- mean (2) μ (growth rate) ([1]; 50 g/L): 0.000 h⁻¹
- mean (1) μ (growth rate) ([1]; 75 g/L): 0.000 h⁻¹
- mean (2) μ (growth rate) ([1]; 75 g/L): 0.000 h⁻¹
- mean (1) μ (growth rate) ([1]; 100 g/L): 0.000 h⁻¹
- mean (2) μ (growth rate) ([1]; 100 g/L): 0.000 h⁻¹
- concentration at which zero/no growth was detected ([1]; K-12 MG1655, M9+1% glucose, Biolector): 50 g/L
- maximum measured concentration at which K-12 MG1655 can grow ([1]; Biolector): 40 g/L

Structure (SMILES): NCCCCCN [cadaverine, pentane-1,5-diamine]
- screening concentration for which wild-type cells could achieve a growth rate of 0.2-0.3 h^−1 (E. coli K-12 MG1655): 35 g/L

Structure (SMILES): C[N+](C)(C)CC(O)CC(=O)[O-] (centres unmarked) [carnitine]
- tlag (lag time) (E. coli K-12 MG1655; [8]): 6.6 h
- μ (growth rate) (E. coli K-12 MG1655; [8]): 0.786 h⁻¹
- tlag (lag time) (E. coli K-12 MG1655; [2]): 7.5 h
- μ (growth rate) (E. coli K-12 MG1655; [2]): 0.545 h⁻¹
- μ (growth rate) (E. coli K-12 MG1655; [3]): 0.000 h⁻¹

Structure (SMILES): NC(=O)NCCC[C@H](N)C(=O)O [citrulline]
- tlag (lag time) (E. coli K-12 MG1655; [4]): 6.7 h
- μ (growth rate) (E. coli K-12 MG1655; [4]): 0.759 h⁻¹
- tlag (lag time) (E. coli K-12 MG1655; [5]): 7.0 h
- μ (growth rate) (E. coli K-12 MG1655; [5]): 0.702 h⁻¹
- tlag (lag time) (E. coli K-12 MG1655; [6]): 7.5 h
- μ (growth rate) (E. coli K-12 MG1655; [6]): 0.677 h⁻¹
- tlag (lag time) (E. coli K-12 MG1655; [9]): 8.6 h
- μ (growth rate) (E. coli K-12 MG1655; [9]): 0.508 h⁻¹
- tlag (lag time) (E. coli K-12 MG1655; [7]): 9.2 h
- μ (growth rate) (E. coli K-12 MG1655; [7]): 0.538 h⁻¹
- tlag (lag time) (E. coli K-12 MG1655; [10]): 10.4 h
- μ (growth rate) (E. coli K-12 MG1655; [10]): 0.437 h⁻¹
- tlag (lag time) (E. coli K-12 MG1655; [11]): 12.4 h
- μ (growth rate) (E. coli K-12 MG1655; [11]): 0.355 h⁻¹
- screening concentration for which wild-type cells could achieve a growth rate of 0.2-0.3 h^−1 (E. coli K-12 MG1655): 80 g/L

Structure (SMILES): NCCN [ethylenediamine, 1,2-diaminoethane]
- tlag (lag time) (E. coli K-12 MG1655; [8]): 7.0 h
- μ (growth rate) (E. coli K-12 MG1655; [8]): 0.689 h⁻¹
- tlag (lag time) (E. coli K-12 MG1655; [2]): 8.5 h
- μ (growth rate) (E. coli K-12 MG1655; [2]): 0.614 h⁻¹
- tlag (lag time) (E. coli K-12 MG1655; [3]): 32.9 h
- μ (growth rate) (E. coli K-12 MG1655; [3]): 0.152 h⁻¹
- μ (growth rate) (E. coli K-12 MG1655; [4]): 0.000 h⁻¹
- screening concentration for which wild-type cells could achieve a growth rate of 0.2-0.3 h^−1 (E. coli K-12 MG1655): 18 g/L

Structure (SMILES): NCCC[C@H](N)C(=O)O [ornithine]
- tlag (lag time) (E. coli K-12 MG1655; [8]): 8.2 h
- μ (growth rate) (E. coli K-12 MG1655; [8]): 0.439 h⁻¹
- tlag (lag time) (E. coli K-12 MG1655; [2]): 17.1 h
- μ (growth rate) (E. coli K-12 MG1655; [2]): 0.260 h⁻¹
- tlag (lag time) (E. coli K-12 MG1655; [3]): 44.2 h
- μ (growth rate) (E. coli K-12 MG1655; [3]): 0.214 h⁻¹
- tlag (lag time) (E. coli K-12 MG1655; [4]): 53.2 h
- μ (growth rate) (E. coli K-12 MG1655; [4]): 0.150 h⁻¹
- tlag (lag time) (E. coli K-12 MG1655; [5]): 82.6 h
- μ (growth rate) (E. coli K-12 MG1655; [5]): 0.076 h⁻¹
- μ (growth rate) (E. coli K-12 MG1655; [6]): 0.000 h⁻¹
- screening concentration for which wild-type cells could achieve a growth rate of 0.2-0.3 h^−1 (E. coli K-12 MG1655): 10 g/L

Structure (SMILES): NCCCCN [putrescine, butane-1,4-diamine]
- mean (1) tlag (lag time) ([1]; 10 g/L): 1.4 h
- mean (1) μ (growth rate) ([1]; 10 g/L): 0.698 h⁻¹
- mean (2) tlag (lag time) ([1]; 10 g/L): 1.0 h
- mean (2) μ (growth rate) ([1]; 10 g/L): 0.538 h⁻¹
- mean (1) tlag (lag time) ([1]; 20 g/L): 2.2 h
- mean (1) μ (growth rate) ([1]; 20 g/L): 0.577 h⁻¹
- mean (2) tlag (lag time) ([1]; 20 g/L): 1.5 h
- mean (2) μ (growth rate) ([1]; 20 g/L): 0.392 h⁻¹
- mean (1) tlag (lag time) ([1]; 30 g/L): 3.4 h
- mean (1) μ (growth rate) ([1]; 30 g/L): 0.350 h⁻¹
- mean (2) tlag (lag time) ([1]; 30 g/L): 6.2 h
- mean (2) μ (growth rate) ([1]; 30 g/L): 0.317 h⁻¹
- mean (1) tlag (lag time) ([1]; 40 g/L): 12.3 h
- mean (1) μ (growth rate) ([1]; 40 g/L): 0.108 h⁻¹
- mean (2) tlag (lag time) ([1]; 40 g/L): 25.8 h
- mean (2) μ (growth rate) ([1]; 40 g/L): 0.148 h⁻¹
- mean (1) tlag (lag time) ([1]; 50 g/L): 19.8 h
- mean (1) μ (growth rate) ([1]; 50 g/L): 0.023 h⁻¹
- mean (2) μ (growth rate) ([1]; 50 g/L): 0.000 h⁻¹
- mean (1) μ (growth rate) ([1]; 75 g/L): 0.000 h⁻¹
- mean (2) μ (growth rate) ([1]; 75 g/L): 0.000 h⁻¹
- mean (1) μ (growth rate) ([1]; 100 g/L): 0.000 h⁻¹
- mean (2) μ (growth rate) ([1]; 100 g/L): 0.000 h⁻¹
- maximum measured concentration at which K-12 MG1655 can grow ([1]; Biolector): 40 g/L

Structure (SMILES): NCCCCNCCCN [spermidine, N-(3-aminopropyl)-1,4-diaminobutane]
- screening concentration for which wild-type cells could achieve a growth rate of 0.2-0.3 h^−1 (E. coli K-12 MG1655): 40 g/L

— US20190002935A1, “BACTERIAL CELLS WITH IMPROVED TOLERANCE TO POLYAMINES” (DANMARKS TEKNISKE UNIVERSITET, priority 2016, published 2019)
